Tests used:
Settings in all cases: 48 h
P12-Ichikawa [1] = experiment: AUC of viability dose-response curve (% viability x log10 dose units); higher = less sensitive
Summary of the method: (§1)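 Viability of medium-adapted leukemia cells was measured by CellTiter-Glo One luminescence after 48 h at 37°C with library compounds in DMSO. Doses were 11 threefold steps from 47 μM to 0.79 nM, in 1536-well plates at 500 or 1000 cells/well. Signals were normalised per plate to DMSO and cell-free wells and fitted with a four-parameter log-logistic model on log10 dose. Area under the curve was integrated by trapezoidal rule, with curves exceeding full viability scaled and failed quality-control curves removed.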

SEM cells [2] = experiment: as above
Summary of the method: as §1

P12-Ichikawa [3] = experiment: cell viability relative to DMSO control; higher = less cytotoxic
Summary of the method: (§2)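 NOMO1 or SEM cells were plated at 500 cells/well and P12-Ichikawa cells at 1000 cells/well in 1536-well plates (5 μl), after each leukemia line had been adapted for at least four passages in each medium. Pin dosing delivered library compounds in DMSO at 11 threefold concentrations, 47 μM to 0.79 nM. CellTiter-Glo One luminescence was read after 48 h at 37°C. Viability is reported as a per-plate percentage of DMSO wells, with cell-free wells as background.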

SEM cells [4] = experiment: as above
Summary of the method: as §2

NOMO1 = experiment: AUC of viability dose-response curve (% viability x log10 dose units); higher = less sensitive
Summary of the method: as §1

COc1ccc(N(C(=O)Oc2c(C)cccc2C)c2ccnc(Nc3ccc(N4CCN(C)CC4)cc3)n2)c(OC)c1
AUC of viability dose-response curve
Settings	HPLM + 10% dialyzed FBS	RPMI 5 mM glucose + 10% FBS	RPMI 5 mM glucose + 10% dialyzed FBS
P12-Ichikawa [1]	466	457	459
SEM cells [2]	456	455	451

O=C1CSC(=O)N1C(CCc1ccncc1)COc1ccc(-c2cccc([N+](=O)[O-])c2)cc1 (stereo not drawn)
cell viability [%]
Settings	HPLM + 10% dialyzed FBS	RPMI 5 mM glucose + 10% FBS	RPMI 5 mM glucose + 10% dialyzed FBS
P12-Ichikawa [3], 0.000781 µM	115	122	–
P12-Ichikawa [3], 0.00234 µM	119	134	–
P12-Ichikawa [3], 0.00702 µM	122	116	–
P12-Ichikawa [3], 0.0211 µM	118	107	–
P12-Ichikawa [3], 0.0632 µM	118	114	–
P12-Ichikawa [3], 0.19 µM	115	91.3	–
P12-Ichikawa [3], 0.569 µM	111	99.1	–
P12-Ichikawa [3], 1.71 µM	111	110	–
P12-Ichikawa [3], 5.12 µM	95.7	87.4	–
P12-Ichikawa [3], 15.4 µM	108	93.7	–
P12-Ichikawa [3], 46.1 µM	90.1	82.3	–
SEM cells [4], 0.000781 µM	119	123	105
SEM cells [4], 0.00234 µM	123	118	131
SEM cells [4], 0.00702 µM	109	132	105
SEM cells [4], 0.0211 µM	115	118	123
SEM cells [4], 0.0632 µM	118	112	135
SEM cells [4], 0.19 µM	92.4	117	116
SEM cells [4], 0.569 µM	114	117	128
SEM cells [4], 1.71 µM	95.6	109	117
SEM cells [4], 5.12 µM	111	98.6	106
SEM cells [4], 15.4 µM	112	82.7	116
SEM cells [4], 46.1 µM	79.5	48.9	75.1

AUC of viability dose-response curve
Settings	NOMO1	P12-Ichikawa [1]	SEM cells [2]
HPLM + 10% dialyzed FBS	444	447	427
RPMI 5 mM glucose + 10% FBS	446	394	433
RPMI 5 mM glucose + 10% dialyzed FBS	454	436	467

O=C(O)c1ccccc1C(=O)Nc1ccc(-c2ccccc2)cc1
cell viability [%]
Settings	P12-Ichikawa [3]	SEM cells [4]
HPLM + 10% dialyzed FBS, 0.000781 µM	123	63.8
HPLM + 10% dialyzed FBS, 0.00234 µM	118	130
HPLM + 10% dialyzed FBS, 0.00702 µM	128	117
HPLM + 10% dialyzed FBS, 0.0211 µM	124	124
HPLM + 10% dialyzed FBS, 0.0632 µM	128	119
HPLM + 10% dialyzed FBS, 0.19 µM	125	118
HPLM + 10% dialyzed FBS, 0.569 µM	123	130
HPLM + 10% dialyzed FBS, 1.71 µM	119	124
HPLM + 10% dialyzed FBS, 5.12 µM	122	127
HPLM + 10% dialyzed FBS, 15.4 µM	114	128
HPLM + 10% dialyzed FBS, 46.1 µM	108	88.5
RPMI 5 mM glucose + 10% dialyzed FBS, 0.000781 µM	119	–
RPMI 5 mM glucose + 10% dialyzed FBS, 0.00234 µM	123	–
RPMI 5 mM glucose + 10% dialyzed FBS, 0.00702 µM	124	–
RPMI 5 mM glucose + 10% dialyzed FBS, 0.0211 µM	124	–
RPMI 5 mM glucose + 10% dialyzed FBS, 0.0632 µM	138	–
RPMI 5 mM glucose + 10% dialyzed FBS, 0.19 µM	123	–
RPMI 5 mM glucose + 10% dialyzed FBS, 0.569 µM	119	–
RPMI 5 mM glucose + 10% dialyzed FBS, 1.71 µM	124	–
RPMI 5 mM glucose + 10% dialyzed FBS, 5.12 µM	117	–
RPMI 5 mM glucose + 10% dialyzed FBS, 15.4 µM	130	–
RPMI 5 mM glucose + 10% dialyzed FBS, 46.1 µM	113	–

AUC of viability dose-response curve
Settings	NOMO1	P12-Ichikawa [1]	SEM cells [2]
HPLM + 10% dialyzed FBS	462	468	449
RPMI 5 mM glucose + 10% FBS	463	461	457
RPMI 5 mM glucose + 10% dialyzed FBS	460	469	456

Cc1c(C(=O)Nc2ccc(N3C[C@@H](C)O[C@@H](C)C3)nc2)cccc1-c1ccc(OC(F)(F)F)cc1
Settings	cell viability [%]
P12-Ichikawa [3], RPMI 5 mM glucose + 10% dialyzed FBS, 0.000781 µM	128
P12-Ichikawa [3], RPMI 5 mM glucose + 10% dialyzed FBS, 0.00234 µM	119
P12-Ichikawa [3], RPMI 5 mM glucose + 10% dialyzed FBS, 0.00702 µM	119
P12-Ichikawa [3], RPMI 5 mM glucose + 10% dialyzed FBS, 0.0211 µM	131
P12-Ichikawa [3], RPMI 5 mM glucose + 10% dialyzed FBS, 0.0632 µM	131
P12-Ichikawa [3], RPMI 5 mM glucose + 10% dialyzed FBS, 0.19 µM	126
P12-Ichikawa [3], RPMI 5 mM glucose + 10% dialyzed FBS, 0.569 µM	124
P12-Ichikawa [3], RPMI 5 mM glucose + 10% dialyzed FBS, 1.71 µM	104
P12-Ichikawa [3], RPMI 5 mM glucose + 10% dialyzed FBS, 5.12 µM	48.6
P12-Ichikawa [3], RPMI 5 mM glucose + 10% dialyzed FBS, 15.4 µM	7.92
P12-Ichikawa [3], RPMI 5 mM glucose + 10% dialyzed FBS, 46.1 µM	6.12
SEM cells [4], HPLM + 10% dialyzed FBS, 0.000781 µM	113
SEM cells [4], HPLM + 10% dialyzed FBS, 0.00234 µM	125
SEM cells [4], HPLM + 10% dialyzed FBS, 0.00702 µM	116
SEM cells [4], HPLM + 10% dialyzed FBS, 0.0211 µM	133
SEM cells [4], HPLM + 10% dialyzed FBS, 0.0632 µM	131
SEM cells [4], HPLM + 10% dialyzed FBS, 0.19 µM	124
SEM cells [4], HPLM + 10% dialyzed FBS, 0.569 µM	132
SEM cells [4], HPLM + 10% dialyzed FBS, 1.71 µM	108
SEM cells [4], HPLM + 10% dialyzed FBS, 5.12 µM	16.3
SEM cells [4], HPLM + 10% dialyzed FBS, 15.4 µM	6.58
SEM cells [4], HPLM + 10% dialyzed FBS, 46.1 µM	4.61

AUC of viability dose-response curve
Settings	NOMO1	P12-Ichikawa [1]	SEM cells [2]
HPLM + 10% dialyzed FBS	366	349	361
RPMI 5 mM glucose + 10% FBS	382	372	335
RPMI 5 mM glucose + 10% dialyzed FBS	408	372	356

COc1cc(C(C)C)c(Oc2cnc(NC(CO)CO)nc2N)cc1I
AUC of viability dose-response curve
Settings	NOMO1	P12-Ichikawa [1]	SEM cells [2]
HPLM + 10% dialyzed FBS	468	464	458
RPMI 5 mM glucose + 10% FBS	436	466	442
RPMI 5 mM glucose + 10% dialyzed FBS	457	452	453

NC(=O)c1cccc(-c2cccc(OC(=O)NC3CCCCC3)c2)c1
cell viability [%], SEM cells [4]
Settings	HPLM + 10% dialyzed FBS	RPMI 5 mM glucose + 10% FBS
0.000781 µM	110	116
0.00234 µM	125	119
0.00702 µM	128	120
0.0211 µM	133	120
0.0632 µM	124	119
0.19 µM	38.4	33
0.569 µM	128	110
1.71 µM	96.5	78.1
5.12 µM	94.7	62.2
15.4 µM	104	78
46.1 µM	96.9	71.5

AUC of viability dose-response curve
Settings	NOMO1	P12-Ichikawa [1]	SEM cells [2]
HPLM + 10% dialyzed FBS	461	413	421
RPMI 5 mM glucose + 10% FBS	473	402	357
RPMI 5 mM glucose + 10% dialyzed FBS	472	380	376

CN1[C@@H]2CCC[C@H]1C[C@@H](NC(=O)c1nn(C)c3ccccc13)C2.Cl
SEM cells [4], HPLM + 10% dialyzed FBS
Settings	cell viability [%]
0.000781 µM	112
0.00234 µM	110
0.00702 µM	126
0.0211 µM	115
0.0632 µM	126
0.19 µM	123
0.569 µM	124
1.71 µM	125
5.12 µM	133
15.4 µM	119
46.1 µM	115

AUC of viability dose-response curve
Settings	NOMO1	P12-Ichikawa [1]	SEM cells [2]
HPLM + 10% dialyzed FBS	468	463	468
RPMI 5 mM glucose + 10% FBS	466	444	434
RPMI 5 mM glucose + 10% dialyzed FBS	465	465	457

Reference: the supplement of paper PMC11451515
